Experimental data reported in patent US6737382B1, “Insecticidal aminothiazole derivatives” (Nippon Soda Co. Ltd., priority 2002, dated 2004).

Columns and labels:
Tetranychus urticae = experiment: Efficacy against Tetranychus urticae (two-spotted spider mites), spray on kidney-bean seedling; conditions: in vivo
Procedure: Efficacy Against Tetranychus urticae (Tu; Two-spotted Spider Mites
Fifteen adult females were inoculated on a potted Kidney-bean seedling. On the next day, the chemical solution at different concentration was sprayed on the Kidney-bean seedling by a glass nozzle using an air compressor. After air-dried the Kidney-bean pot was maintained in a room kept at 25° C. and 65%RH.
On three days after treatment, the numbers of dead and alive mites were counted and mortality was calculated by Abbott's formula.
Each test was duplicated. [formula]

Pseudaletia separata = experiment: whole plant or invertebrate; assay type: in vivo; conditions: Mythimna separata, in Zea mays, foliar, 120 h
Procedure: Efficacy Against Pseudaletia separata Walker (Ps; Rice Armyworm)
A piece of Maize leaf (ca. 7×1.5 cm) was dipped in the chemical solution at 125 ppm for 30 sec and air-dried. The leaf was placed in a glass petri dish (9 cm diameter) and five second-instar larvae of Pseudaletia separata were introduced into the petri dish. Five days after the treatment, the number of survival larvae was counted and the mortality was calculated by Abbott's formula. Each test was duplicated.

Plutella xylostella = experiment: whole plant or invertebrate; assay type: in vivo; conditions: in Brassica oleracea, 72 h
Source text: Efficacy Against Plutella xylostella Linne (Px; Diamondback Moth)
The chemical solution at 125 ppm was sprayed on a Cabbage seedling by a glass nozzle using an air compressor. After airdried, a small leaf (ca. 5 cm diameter) was detached from the treated plant and placed in a glass petri dish (ca. 9 cm diameter). Five second-instar larvae of Plutella xylostella were introduced into the petri dish. Three days after the treatment, the number of survival larvae was counted and the mortality was calculated by Abbott's formula. Each test was duplicated.

| melting point | SMILES | mortality at 125 ppm (Pseudaletia separata) | also measured |
| --- | --- | --- | --- |
| 184 to 185 °C | O=C(Nc1nc(C(F)(F)F)c(Br)s1)c1cccs1 [Compound 34, N-(5-Bromo-4-trifluoromethylthiazol-2-yl)thiophene-2-carboxamide] |  |  |
| 183 to 184 °C | O=C(Nc1nc(C(F)(F)F)c(Cl)s1)c1ccc(Cl)c([N+](=O)[O-])c1 [Compound 80, N-(5-Chloro-4-trifluoromethylthiazol-2-yl)-4-chloro-3-nitrobenzamide] |  |  |
| 172 to 173 °C | O=C(Nc1nc(C(F)(F)F)c(I)s1)c1cc(C(F)(F)F)cc(C(F)(F)F)c1 [Compound 102, N-(5-Iodo-4-trifluoromethylthiazol-2-yl)-3,5-bis-trifluoromethylbenzamide] |  |  |
| 167 to 168 °C | N#CSc1sc(NC(=O)c2cccc(C(F)(F)F)c2)nc1C(F)(F)F [Compound 131, N-(5-thiocyanato-4-trifluoromethylthiazol-2-yl)-3-trifluoromethylbenzamide] |  |  |

The remaining lines, values behind:

| SMILES | melting point | mortality at 125 ppm (Pseudaletia separata) | also measured |
| --- | --- | --- | --- |
| O=C(Nc1nc(C(F)(F)F)c(Br)s1)c1ccc(Cl)c(Cl)c1 [Compound 19, N-(5-Bromo-4-trifluoromethylthiazol-2-yl)-3,4-dicloro-benzamide] |  |  | mortality (Tetranychus urticae): 100% |
| O=C(Nc1nc(C(F)(F)F)c(I)s1)c1c(Cl)cccc1Cl [Compound 44, N-(5-Iodo-4-trifluoromethylthiazol-2-yl)-2,6-dichloro-benzamide] |  | 100% |  |
| O=C(Nc1nc(C(F)(F)F)c(I)s1)c1ccc(C(F)(F)F)cc1 [Compound 45, N-(5-Iodo-4-trifluoromethylthiazol-2-yl)-4-trifluoromethyl-benzamide] |  | 100% | mortality at 125 ppm (Plutella xylostella): 100% |
| O=C(Nc1nc(C(F)(F)F)c(-c2ccc(F)cc2)s1)c1ccc(C(F)(F)F)cc1 [Compound 81, N-(5-(4-Fluorophenyl)-4-trifluoromethylthiazol-2-yl)-4-trifluoromethylbenzamide] |  | 100% |  |
